# Measured values taken from patent publication US9049814B2, “Coated seeds and methods of making coated seeds” (VamTech, LLC, priority 2007, dated 2015).
# What was measured:
# [1] = test system: VAM fungi (4 species VAM fungal cocktail) on corn plants; experiment: Percent VAM development on 6-week-old corn plants from coated seed (2006); assay type: in vivo; conditions: for % VAM: 6-week-old corn plants, 95 VAM spores, low P; for % VAM, averaged: average across treatments, base VAM level 54% without treatment
# Text: Example 1 describes experimental studies carried out, in spring and summer of 2006 to evaluate the effects of different commercial fungicide seed coatings on VAM development in germinated corn seedlings in the presence and absence of alkali formononetinate. All corn seed coatings were done by Sub-Sahara International, Inc. (now owned by Becker Underwood Inc.) using standard coating procedures. The treater used was an RP-14 rotary seed coating machine manufactured by Sedpell in Canada. Successive applications were made with the fungicides being applied first according to the label instructions; then, when the seeds were dry they were over-coated with the alkali (potassium) formononetinate.
# Fungicides were applied as a high viscosity, liquid suspension formulations according to the use directions on the respective labels.
# The alkali formononetinate was dissolved in water and Polykote added according to the following ratios by weight: water—70 parts; alkali formononetinate—45 parts; Polykote—20 parts.
# Seed germination and VAM development tests were carried out in a greenhouse at the Formosa Agricultural and Environmental Research Center, LaWard, Tex.
# Percent VAM development was determined, within 3 weeks of treatment, on five, 6-week-old corn plants (from seeding) per treatment planted in sterile potting soil containing 95 spores of a 4 species VAM fungal cocktail at low P concentration. Originally 10 plants per treatment were installed in 30 ml Seedling® cells and after 10 days, 5 were transplanted into 1 liter containers.
# [2] = test system: VAM fungi (Glomus etunicatum, Glomus clarum, Entrophospora columbiana, Glomus intraradices) on corn roots; experiment: VAM colonization of corn roots from Myconate over-treated seed (2007); assay type: in vivo, Zea mays L.; conditions: for % Root colonization by VAM: Mean (%) / % Root colonization by VAM in 5 replicates: A / % Root colonization by VAM in 5 replicates: B / % Root colonization by VAM in 5 replicates: C / % Root colonization by VAM in 5 replicates: D / % Root colonization by VAM in 5 replicates: E: variety BH, fungicide/insecticide pre-treated seed; for % Root colonization by VAM: Mean (%): mean of 5 replicates; for % Root colonization by VAM in 5 replicates: A: replicate A; for % Root colonization by VAM in 5 replicates: B: replicate B; for % Root colonization by VAM in 5 replicates: C: replicate C; for % Root colonization by VAM in 5 replicates: D: replicate D; for % Root colonization by VAM in 5 replicates: E: replicate E
# Experimental: Methods: This study was conducted between February-April 2007 in a greenhouse at the Formosa Agricultural and Environmental Research Center using hybrid corn plants (Zea mays L.) var. Beck's Hybrids 5959 (HB) and Dow/Mycogen 2D675 (PG). The hybrid corn seed was purchased from commercial sources and was pre-treated with one of two fungicidal/insecticidal seed treatments. Variety HB was commercially treated with Beck's “SureGro” containing fludioxonil and mefenoxam fungicides; together with Agriliance Actellic 5E (a.i. pirimiphos-methyl) insecticide, according to label directions. Variety PG was commercially treated with Syngenta “Cruiser Extreme” (a.i. fludioxonil, mefenoxam and azoxystrobin fungicides plus thiamethoxam insecticide) according to label directions.
# Subsequently, the corn seed was over-treated with one of two formulations of Myconate. One formulation contained 98% potassium formononetinate (kf) together with Polykote polymer; and the other, 100% acid formononetin (afP) together with Polykote polymer, wetting agent, colorant, and preservative. The kf treatments, 1 through 6 in Table 6, contained varying amounts of potassium formononetinate and were applied using a lab bench apparatus. The afP treatments, 18 and 19, were applied using commercial equipment. Treated HB seed received the kf treatment of potassium formononetinate at rates of 0.2 to 5.6 mg/seed. Treated PG seed received the afP treatment of formononetin at single rate of 0.8 mg/seed. The concentration of formononetin per seed was calculated by gravimetric measurement of the coating applied to the seed.
# The controls for the kf treatments involved two seed samples, 7 and 8, both untreated with kf and one of these was also untreated with VAM spores. The control for the afP treatment was treated with afP but was not treated with VAM. The various treatments, including the addition of VAM spores to the growing medium prior to sowing for VAM development studies are described schematically in Table 6.
# The colonization rate of VAM fungi on corn roots was determined using methods commonly used to quantify vesicular arbuscular mycorrhiza (Kormanik PP and AC McGraw (1984) Quantification of vesicular-arbuscular mycorrhizae in plant roots. In N. C. Schenck (ed.) Methods and Principles of Mycorrhizal Research. American Phytopathological Society, St. Paul, Minn.; Phillips J M and D S Hayman (1970) Improved procedures for clearing roots and staining parasitic and vesicular-arbuscular mycorrhizal fungi for rapid assessment of infection. Trans. Br. Mycol. Soc. 55:158-160; Read D J, H K Koncheki and J Hodgson (1976) Vesicular-arbuscular mycorrhiza in natural vegetation systems. New Phytol. 77:641-653). Speedling tray cells (30 ml volume) were partially (⅔) filled with autoclaved Miraco-III potting mix and inoculated with 95 spores of VAM cocktail (Lot No. 12-14-04). The VAM cocktail contained spores of Glomus etunicatum, Glomus clarum, Entrophospora columbiana and Glomus intraradices. The cocktail was prepared by mixing dry-sieved (179 microns) spore preparations of G. entunicatum, G. clarum and E. columbiana with dry root pieces containing the intraradical spores of G. intraradices. Each fungal species was individually produced and processed using a pot culture technique. The cells were then filled with Miraco-III mix. After sowing, (one seed per cell, 9-20 seed per treatment), the trays were incubated under continuous light at room temperature. Ten days after sowing, five seedlings from each experimental treatment and 10 from two untreated controls (Treatments 7 and 8) were randomly selected and transplanted to 1-liter cups containing a sand-based medium. The cups were incubated in a greenhouse and a low phosphorus (P) nutrient solution (1.175 ppm) was applied to all treatments 1-2 times per week as needed to maintain proper soil moisture. […]
# [3] = test system: VAM-infected roots of oats; conditions: thereby decreasing phosphorus uptake; cited from earlier work
# Glomus mosseae = conditions: cited from earlier work
# [4] = test system: mycorrhizal colonization of Leucaena leucocephala; conditions: in vivo; cited from earlier work
smiles,measurement,setting,value
"COc1ccc(-c2coc3cc([O-])ccc3c2=O)cc1.[K+] [Myconate kf, potassium formononetinate]",% VAM,[1]; 0.5 mg alkali formononetinate/seed over-coated on the named fungicide (or none),61%
same,"% VAM, averaged",[1]; 0.5 mg alkali formononetinate/seed,67%
same,% VAM,[1]; 1.0 mg alkali formononetinate/seed over-coated on the named fungicide (or none),66%
same,"% VAM, averaged",[1]; 1.0 mg alkali formononetinate/seed,73%
same,increase of VAM colonization,[2]; 1.6 mg/seed,approximately 30%
same,% Root colonization by VAM: Mean (%),[2]; Treatment 1: 0.2 mg/seed kf,41.0%
same,% Root colonization by VAM in 5 replicates: A,[2]; Treatment 1: 0.2 mg/seed kf,40%
same,% Root colonization by VAM in 5 replicates: B,[2]; Treatment 1: 0.2 mg/seed kf,47%
same,% Root colonization by VAM in 5 replicates: C,[2]; Treatment 1: 0.2 mg/seed kf,41%
same,% Root colonization by VAM in 5 replicates: D,[2]; Treatment 1: 0.2 mg/seed kf,39%
same,% Root colonization by VAM in 5 replicates: E,[2]; Treatment 1: 0.2 mg/seed kf,38%
same,% Root colonization by VAM: Mean (%),[2]; Treatment 2: 0.4 mg/seed kf,43.6%
same,% Root colonization by VAM in 5 replicates: A,[2]; Treatment 2: 0.4 mg/seed kf,44%
same,% Root colonization by VAM in 5 replicates: B,[2]; Treatment 2: 0.4 mg/seed kf,48%
same,% Root colonization by VAM in 5 replicates: C,[2]; Treatment 2: 0.4 mg/seed kf,45%
same,% Root colonization by VAM in 5 replicates: D,[2]; Treatment 2: 0.4 mg/seed kf,40%
same,% Root colonization by VAM in 5 replicates: E,[2]; Treatment 2: 0.4 mg/seed kf,41%
same,% Root colonization by VAM: Mean (%),[2]; Treatment 3: 0.8 mg/seed kf,43.8%
same,% Root colonization by VAM in 5 replicates: A,[2]; Treatment 3: 0.8 mg/seed kf,45%
same,% Root colonization by VAM in 5 replicates: B,[2]; Treatment 3: 0.8 mg/seed kf,42%
same,% Root colonization by VAM in 5 replicates: C,[2]; Treatment 3: 0.8 mg/seed kf,47%
same,% Root colonization by VAM in 5 replicates: D,[2]; Treatment 3: 0.8 mg/seed kf,45%
same,% Root colonization by VAM in 5 replicates: E,[2]; Treatment 3: 0.8 mg/seed kf,40%
same,% Root colonization by VAM: Mean (%),[2]; Treatment 4: 1.6 mg/seed kf,32.0%
same,% Root colonization by VAM in 5 replicates: A,[2]; Treatment 4: 1.6 mg/seed kf,30%
same,% Root colonization by VAM in 5 replicates: B,[2]; Treatment 4: 1.6 mg/seed kf,39%
same,% Root colonization by VAM in 5 replicates: C,[2]; Treatment 4: 1.6 mg/seed kf,28%
same,% Root colonization by VAM in 5 replicates: D,[2]; Treatment 4: 1.6 mg/seed kf,35%
same,% Root colonization by VAM in 5 replicates: E,[2]; Treatment 4: 1.6 mg/seed kf,28%
same,% Root colonization by VAM: Mean (%),[2]; Treatment 5: 4.0 mg/seed kf,25.0%
same,% Root colonization by VAM in 5 replicates: A,[2]; Treatment 5: 4.0 mg/seed kf,27%
same,% Root colonization by VAM in 5 replicates: B,[2]; Treatment 5: 4.0 mg/seed kf,21%
same,% Root colonization by VAM in 5 replicates: C,[2]; Treatment 5: 4.0 mg/seed kf,31%
same,% Root colonization by VAM in 5 replicates: D,[2]; Treatment 5: 4.0 mg/seed kf,24%
same,% Root colonization by VAM in 5 replicates: E,[2]; Treatment 5: 4.0 mg/seed kf,22%
same,% Root colonization by VAM: Mean (%),[2]; Treatment 6: 5.6 mg/seed kf,18.2%
same,% Root colonization by VAM in 5 replicates: A,[2]; Treatment 6: 5.6 mg/seed kf,19%
same,% Root colonization by VAM in 5 replicates: B,[2]; Treatment 6: 5.6 mg/seed kf,12%
same,% Root colonization by VAM in 5 replicates: C,[2]; Treatment 6: 5.6 mg/seed kf,25%
same,% Root colonization by VAM in 5 replicates: D,[2]; Treatment 6: 5.6 mg/seed kf,18%
same,% Root colonization by VAM in 5 replicates: E,[2]; Treatment 6: 5.6 mg/seed kf,17%
same,effect on VAM colonization,[2]; at or above 4.0 mg/seed,decreased VAM colonization
same,increase of VAM colonization,"[2]; commercial use rate (0.8 mg/seed), over the untreated control (24.2% VAM colonization)",81%
"O=[N+]([O-])c1c(Cl)c(Cl)c(Cl)c(Cl)c1Cl [PCNB, pentachloronitrobenzene]",VAM-infected root length of oats,[3],decreased
CCCCNC(=O)n1c(NC(=O)OC)nc2ccccc21 [benomyl],Growth of the vesicular arbuscular mycorrhizal fungus Glomus mosseae,Glomus mosseae,affected
N#Cc1c(Cl)c(Cl)c(Cl)c(C#N)c1Cl [chlorothalonil],"mycorrhizal colonization, phosphorus concentration, and dry matter yields of Leucaena leucocephala",[4],decrease
